Results: ChEMBL document CHEMBL3217624, “Probing androgen receptor co-factor selectivity profiles: a chemical tool to determine cross-talk between androgen receptor and -catenin in vivo” (Medchemcomm, 2013)
Active and inactive are the calls of the source. No cut-off for these calls is given here.

What was measured:
Androgen receptor [1] = molecular target: T1, Androgen receptor (Homo sapiens, UniProt P10275); assay: Agonist activity at human AR expressed in African green monkey CV1 cells after 17 hrs by ARE-driven luciferase reporter gene assay; assay type: cell-based, CV-1
T1 sequence (P10275 whole entry): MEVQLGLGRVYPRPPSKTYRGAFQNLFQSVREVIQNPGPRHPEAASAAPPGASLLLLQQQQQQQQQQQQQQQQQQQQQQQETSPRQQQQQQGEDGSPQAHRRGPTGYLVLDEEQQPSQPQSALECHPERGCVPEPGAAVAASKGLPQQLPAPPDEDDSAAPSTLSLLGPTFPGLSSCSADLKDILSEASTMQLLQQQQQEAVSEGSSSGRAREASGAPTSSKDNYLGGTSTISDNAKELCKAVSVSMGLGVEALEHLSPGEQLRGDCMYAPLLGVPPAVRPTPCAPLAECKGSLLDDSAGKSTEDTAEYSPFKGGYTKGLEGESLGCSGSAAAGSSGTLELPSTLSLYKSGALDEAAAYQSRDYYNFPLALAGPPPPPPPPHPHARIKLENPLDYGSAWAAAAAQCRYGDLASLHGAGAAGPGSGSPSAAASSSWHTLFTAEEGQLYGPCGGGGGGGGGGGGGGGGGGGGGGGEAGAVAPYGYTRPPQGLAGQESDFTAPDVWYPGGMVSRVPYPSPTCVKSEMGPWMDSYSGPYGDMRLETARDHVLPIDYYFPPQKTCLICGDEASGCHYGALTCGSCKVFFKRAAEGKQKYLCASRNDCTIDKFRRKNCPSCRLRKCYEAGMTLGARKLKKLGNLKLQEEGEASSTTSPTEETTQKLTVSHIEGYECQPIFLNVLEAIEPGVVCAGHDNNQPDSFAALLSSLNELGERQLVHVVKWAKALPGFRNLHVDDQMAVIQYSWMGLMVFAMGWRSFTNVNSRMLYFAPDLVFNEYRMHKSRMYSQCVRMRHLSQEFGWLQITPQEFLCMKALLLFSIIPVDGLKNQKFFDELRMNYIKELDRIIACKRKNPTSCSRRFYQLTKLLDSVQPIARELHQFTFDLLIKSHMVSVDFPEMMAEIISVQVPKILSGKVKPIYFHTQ

Androgen receptor [2] = molecular target: T1, Androgen receptor; assay: Displacement of [3H]mibolerone from human AR expressed in COS cells after 3.5 hrs by liquid scintillation counting analysis; assay type: cell-based
Rattus norvegicus [3] = assay: Androgenic activity in ORX rat model assessed as effect on seminal vesicle weight at 3 to 30 mg/kg, sc qd after 11 days relative to sham control; assay type: functional, organism-based
[4] = molecular target: T2, Androgen receptor (Homo sapiens) (UniProt P10275); assay: Agonist activity at human AR expressed in African green monkey CV1 cells assessed as supression of beta-catenin at 1000 nM after 17 hrs by Wnt 12xTcf-luciferase reporter gene assay relative to control; assay type: cell-based; conditions: CV-1
T2 sequence (whole entry): T1 sequence (P10275 whole entry)

Rattus norvegicus [5] = assay: Androgenic activity in ORX rat model assessed as reduction in plasma luteinizing hormone level at 10 mg/kg, sc qd after 11 days relative to sham control; assay type: functional, organism-based; design: dose 10 mg/kg
Rattus norvegicus [6] = assay: Androgenic activity in ORX rat model assessed as reduction in plasma luteinizing hormone level at 3 mg/kg, sc qd after 11 days relative to sham control; assay type: functional, organism-based; design: dose 3 mg/kg
Rattus norvegicus [7] = assay: Androgenic activity in ORX rat model assessed as reduction in plasma luteinizing hormone level at 30 mg/kg, sc qd after 11 days relative to sham control; assay type: functional, organism-based; design: dose 30 mg/kg
Rattus norvegicus [8] = assay: Androgenic activity in sc dosed ORX rat model assessed as increase in hepatic carnitine palmitoyltransferase1 expression after 11 days by RT-PCR analysis relative to sham control; assay type: functional
Rattus norvegicus [9] = assay: Androgenic activity in ORX rat model assessed as restoration of hepatic hydroxyacid oxidase2 expression at 10 to 30 mg/kg, sc qd after 11 days by RT-PCR analysis relative to sham control; assay type: functional; conditions: dose mg/kg 10-30; route subcutaneous
Rattus norvegicus [10] = assay: Androgenic activity in ORX rat model assessed as increase in levator ani muscle weight at 1 mg/kg, sc qd after 11 days relative to sham control; assay type: functional, organism-based; design: dose 1 mg/kg
Rattus norvegicus [11] = assay: Androgenic activity in ORX rat model assessed as reduction in plasma luteinizing hormone level at 1 mg/kg, sc qd after 11 days relative to sham control; assay type: functional, organism-based; design: dose 1 mg/kg
Rattus norvegicus [12] = assay: Androgenic activity in ORX rat model assessed as increase in seminal vesicle weight at 1 mg/kg, sc qd after 11 days relative to sham control; assay type: functional, organism-based; design: dose 1 mg/kg
Rattus norvegicus [13] = assay: Androgenic activity in ORX rat model assessed as increase in hepatic carnitine palmitoyltransferase1 expression at 1 mg/kg, sc qd after 11 days by RT-PCR analysis relative to sham control; assay type: functional; conditions: route subcutaneous
Rattus norvegicus [14] = assay: Androgenic activity in ORX rat model assessed as increase in prostate weight at 1 mg/kg, sc qd after 11 days relative to sham control; assay type: functional, organism-based; design: dose 1 mg/kg; conditions: Prostate gland
Rattus norvegicus [15] = assay: Androgenic activity in ORX rat model assessed as restoration of hepatic hydroxyacid oxidase2 expression at 1 mg/kg, sc qd after 11 days by RT-PCR analysis relative to sham control; assay type: functional, organism-based; design: dose 1 mg/kg

| Compound | EC50 (Androgen receptor [1]) [nM] | IC50 (Androgen receptor [2]) [nM] | Activity (Rattus norvegicus [3]) | Activity [4] [%] | Activity (Rattus norvegicus [5]) | Activity (Rattus norvegicus [6]) | Activity (Rattus norvegicus [7]) | Activity (Rattus norvegicus [8]) | fold change (FC) (Rattus norvegicus [8]) | fold change (FC) (Rattus norvegicus [9]) | Activity (Rattus norvegicus [10]) | Activity (Rattus norvegicus [11]) | Activity (Rattus norvegicus [12]) | fold change (FC) (Rattus norvegicus [13]) | Activity (Rattus norvegicus [14]) | Activity (Rattus norvegicus [15]) |
| --- | --- | --- | --- | --- | --- | --- | --- | --- | --- | --- | --- | --- | --- | --- | --- | --- |
| CN1C(=O)C(F)=C[C@]2(C)[C@H]3CC[C@]4(C)[C@@H](C(=O)NCc5nc6cccnc6[nH]5)CC[C@H]4[C@@H]3CC[C@@H]12 [MK-0773] | 144 | 196 | inactive | 32 | Active | inactive | inactive | Dose-dependent effect | 2 | 2.5 | – | – | – | – | – | – |
| CCC(=O)O[C@H]1CC[C@H]2[C@@H]3CCC4=CC(=O)CC[C@]4(C)[C@H]3CC[C@]12C [TESTOSTERONE PROPIONATE] | – | 18 | – | – | – | – | – | – | – | – | Active | Active | Active | 2 | Active | Active |
